# Test results: patent US20260078111A1, “CARBONIC ANHYDRASE ENZYME INHIBITORS AND METHODS OF USE THEREOF” (RUTGERS, THE STATE UNIVERSITY OF NEW JERSEY, priority 2022, published 2026)
# How the values were obtained:
# recombinant human Car1 = recombinant human Car1 (Homo sapiens, UniProt P00915); experiment: Stopped-flow assay of Car1 enzyme inhibition (IC50); type: biochemical
# Protocol: Stopped-flow: IC50 values were established using an SX20 stopped-flow spectrometer from […]. In one syringe of the SX20, recombinant human Car1 was kept at a concentration of 9 μM in a sodium phosphate buffer and inhibitors were added to this solution at 0 nM, 10 nM, 20 nM, 80 nM and 100 nM. In a second syringe, a saturated CO2 solution was mixed with 0.2 mM phenol red. This series of dilutions allow for the evaluation of how quickly Car1 can metabolize the CO2 in the absence of an inhibitor and for the determination of whether that process is inhibited as increasing concentrations of compounds are added.
# [1] = tested on: mast cell development from murine bone marrow cells; experiment: In vitro mast cell development culture assay (IL-3, flow cytometry); type: cell-based, mice
# Protocol: To further test the ability of 4-(3-hydroxy-1-(4-methoxybenzyl)-2-oxoindolin-3-yl)benzenesulfonamide to inhibit mast cell development, an established mast cell culture assay was employed (Henry, E. K., et al., J Exp Med, 2016. 213(9): p. 1663-73). As a positive control for mast cell development, bone marrow cells were isolated from the femur of mice and cultured in the presence of 10 ng/mL of IL-3 and vehicle (1:10, DMSO/RPMI complete media) for seven days and mast cells were identified by flow cytometric analysis as (c-Kit+ FceRIa+ CD49b− cells).
# In vitro Mast Cell development: Briefly, 1×10^6 bone marrow-resident progenitor cells were isolated from the femur of mice and cultured in complete media supplemented with 10 ng/mL of rIL-3 for a period of […]. Mast cells were identified by their expression of the surface molecules FcεRIα and c-Kit via flow cytometric analysis. In addition to IL-3, cultures were treated with vehicle or increasing concentrations of Car enzyme inhibitors at the indicated concentrations.
# [2] = tested on: intestinal mast cell responses; experiment: Trichinella spiralis-induced mastocytosis model; type: in vivo; details: 2 mg/day i.p., T. spiralis-infected mice, day 10 post-infection
# Description: To address this, a model of Trichinella spiralis-induced mastocytosis was employed and the capacity of MZ and 4-(3-hydroxy-1-(4-methoxybenzyl)-2-oxoindolin-3-yl)benzenesulfonamide to inhibit intestinal mast cell responses was directly compared (Henry, E. K., et al., J Exp Med, 2016. 213(9): p. 1663-73). Briefly, mice were infected with T. spiralis and treated with either vehicle, MZ or 4-(3-hydroxy-1-(4-methoxybenzyl)-2-oxoindolin-3-yl)benzenesulfonamide and intestinal mast cells were quantified via esterase staining and histological analysis (Henry, E. K., et al., J Exp Med, 2016. 213(9): p. 1663-73).
# Trichinella spiralis infection: Mice were infected with 500 T. spiralis muscle stage larvae by oral gavage and were treated with vehicle (1:5, DMSO/PBS), 2 mg MZ, or 2 mg 4-(3-hydroxy-1-(4-methoxybenzyl)-2-oxoindolin-3-yl)benzenesulfonamide (CAR0037) i.p. daily; mice were sacrificed between on day 10-post infection and mast cell responses in the small intestine were evaluated by esterase staining as described previously (Henry, E. K., et al., J Exp Med, 2016. 213(9): p. 1663-73).
# Sequence of recombinant human Car1 (P00915 whole entry): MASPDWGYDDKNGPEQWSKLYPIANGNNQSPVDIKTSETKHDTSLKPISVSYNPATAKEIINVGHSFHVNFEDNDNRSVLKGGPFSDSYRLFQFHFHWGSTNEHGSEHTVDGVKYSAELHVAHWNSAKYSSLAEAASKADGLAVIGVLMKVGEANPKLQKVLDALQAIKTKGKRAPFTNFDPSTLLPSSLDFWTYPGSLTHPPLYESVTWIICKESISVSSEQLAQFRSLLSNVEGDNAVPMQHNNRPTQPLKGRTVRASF
compound,measurement,setting,value
"COc1ccc(CN2C(=O)C(O)(c3ccc(S(N)(=O)=O)cc3)c3ccccc32)cc1 (stereo not drawn) [CAR0037, 4-(3-hydroxy-1-(4-methoxybenzyl)-2-oxoindolin-3-yl)benzenesulfonamide]",IC50,recombinant human Car1,0.044 nM
same,inhibition of mast cell development compared to MZ,"[1]; 10 uM, IL-3 10 ng/mL, seven days, versus 126.97 uM MZ",inhibited mast cell development as effectively as 126.97 uM of MZ
same,intestinal mast cell responses post-infection (esterase staining),[2],significantly decreased intestinal mast cell numbers
"CC(=O)/N=c1/sc(S(N)(=O)=O)nn1C [MZ, methazolamide, reference compound]",mast cell numbers,"[1]; 30 μg/mL (126.97 uM), IL-3 10 ng/mL, seven days",significantly decreased mast cell numbers
same,inhibition at 126 µM,"[1]; Mus musculus, Mast cell, read-out: POI of control (percent of inhibition based on MC numbers)",78 to 100%
same,intestinal mast cell responses post-infection (esterase staining),[2],no changes in mast cell responses
